Data from PubChem BioAssay AID248 (DTP/NCI, 2004).
Where “and” joins values, the source holds several entries; their conditions need not be identical. Equal entries are not always repeated. Toxic doses and inconclusive results are not listed. Cut-off read from the data, not from the text of the source: active = T/C of 150% or more; inactive = T/C below 125%.

System: L1210 leukemia ip in BDF1 mice, survival T/C
Experiment: NCI In Vivo Anticancer Drug Screen. Data for tumor model L1210 Leukemia (intraperitoneal) in B6D2F1 (BDF1) mice
Settings: endpoint: mean survival time, higher = longer survival
Summary of the method: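 Each compound was tested against a transplantable tumor grown in mice. The endpoint was survival, with treated animals benchmarked against vehicle controls as a simple ratio.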

[1] = dose: 100.0 mg/kg/injection, schedule: Q01DX001 (ip), vehicle: other
[2] = dose: 100.0 mg/kg/injection, schedule: Q01DX009 (ip), vehicle: saline with Tween-80
[3] = dose: 400.0 mg/kg/injection, schedule: Q01DX009 (ip), vehicle: saline with Tween-80
[4] = dose: 25.0 mg/kg/injection, schedule: Q01DX009 (ip), vehicle: Klucel (hydroxypropylcellulose) (HPC)
[5] = dose: 50.0 mg/kg/injection, schedule: Q01DX009 (ip), vehicle: Klucel (hydroxypropylcellulose) (HPC)
[6] = dose: 100.0 mg/kg/injection, schedule: Q01DX009 (ip), vehicle: Klucel (hydroxypropylcellulose) (HPC)
[7] = dose: 200.0 mg/kg/injection, schedule: Q01DX009 (ip), vehicle: Klucel (hydroxypropylcellulose) (HPC)
[8] = dose: 200.0 mg/kg/injection, schedule: Q01DX009 (ip), vehicle: saline with Tween-80

Measured: T/C

CC(=O)Nc1ccc(S(=O)(=O)NC(C)=O)cc1
inactive: [1] 94 % of control | [2] 108 % of control | dose: 200.0 mg/kg/injection, schedule: Q01DX001 (ip), vehicle: other 96 % of control | dose: 400.0 mg/kg/injection, schedule: Q01DX001 (ip), vehicle: other 107 % of control | [3] 97 % of control

Fc1cc(N(CCCl)CCCl)ccc1CN1CCCN(Cc2ccc(N(CCCl)CCCl)cc2F)C1c1ccc(N(CCCl)CCCl)cc1Cl
inactive: dose: 50.0 mg/kg/injection, schedule: Q01DX001 (ip), vehicle: carboxymethylcellulose (CMC) 105 % of control | dose: 100.0 mg/kg/injection, schedule: Q01DX001 (ip), vehicle: carboxymethylcellulose (CMC) 96 % of control | dose: 200.0 mg/kg/injection, schedule: Q01DX001 (ip), vehicle: carboxymethylcellulose (CMC) 100 % of control | dose: 400.0 mg/kg/injection, schedule: Q01DX001 (ip), vehicle: carboxymethylcellulose (CMC) 102 % of control

CCCC1(C)COB(c2ccc(C)cc2)OC1
inactive: [4] 102 % of control | [5] 105 % of control | dose: 50.0 mg/kg/injection, schedule: Q04DX003 (ip), vehicle: Klucel (hydroxypropylcellulose) (HPC) 92 % of control | [6] 114 % of control | dose: 100.0 mg/kg/injection, schedule: Q04DX003 (ip), vehicle: Klucel (hydroxypropylcellulose) (HPC) 101 % of control | [7] 122 % of control | dose: 200.0 mg/kg/injection, schedule: Q04DX003 (ip), vehicle: Klucel (hydroxypropylcellulose) (HPC) 92 % of control | dose: 400.0 mg/kg/injection, schedule: Q01DX009 (ip), vehicle: Klucel (hydroxypropylcellulose) (HPC) 88 % of control | dose: 400.0 mg/kg/injection, schedule: Q04DX003 (ip), vehicle: Klucel (hydroxypropylcellulose) (HPC) 95 % of control

CC(=O)c1cc(F)ccc1O
inactive: dose: 100.0 mg/kg/injection, schedule: Q04DX003 (ip), vehicle: saline with Tween-80 102 % of control | dose: 200.0 mg/kg/injection, schedule: Q04DX003 (ip), vehicle: saline with Tween-80 97 % of control | dose: 400.0 mg/kg/injection, schedule: Q04DX003 (ip), vehicle: saline with Tween-80 94 % of control

CC(=O)OCCC/C(=C\c1cccc([N+](=O)[O-])c1)[N+](=O)[O-]
inactive: [1] 111 % of control

CC(=O)Nc1ccc(OC(=O)Nc2c(C)cccc2Cl)cc1
inactive: [4] 101 % of control | [5] 95 % of control | [6] 94 % of control and 101 % of control

CN(C)CC(Oc1ccccc1)c1ccccc1 (stereo not given)
inactive: dose: 100.0 mg/kg/injection, schedule: Q04DX002 (ip), vehicle: saline 98 % of control

O=C(O)c1c(F)cccc1Cl
inactive: dose: 100.0 mg/kg/injection, schedule: Q04DX002 (ip), vehicle: saline with Tween-80 93 % of control | dose: 200.0 mg/kg/injection, schedule: Q04DX002 (ip), vehicle: saline with Tween-80 108 % of control | dose: 400.0 mg/kg/injection, schedule: Q04DX002 (ip), vehicle: saline with Tween-80 106 % of control

CCN(CC)CCCC(C)Nc1cc(N)c2ncc(-c3ccc(Cl)cc3)nc2n1 (stereo not given)
inactive: dose: 75.0 mg/kg/injection, schedule: Q01DX001 (ip), vehicle: saline 96 % of control | dose: 150.0 mg/kg/injection, schedule: Q01DX001 (ip), vehicle: saline 102 % of control

CCOC(=O)c1nnc(-c2ccc(C)cc2)[nH]c1=O
inactive: [5] 95 % of control | [6] 95 % of control | [7] 106 % of control

CCCNC(C)(C)C(SSSC(c1ccc(C(F)(F)F)cc1)C(C)(C)NCCC)c1ccc(C(F)(F)F)cc1 (stereo not given)
inactive: [2] 96 % of control | [8] 100 % of control

CC1(O)CC2CCC1C2 (stereo not given)
inactive: dose: 100.0 mg/kg/injection, schedule: Q01DX009 (ip), vehicle: other 102 % of control | [2] 92 % of control | dose: 100.0 mg/kg/injection, schedule: Q04DX003 (ip), vehicle: other 95 % of control | dose: 200.0 mg/kg/injection, schedule: Q01DX009 (ip), vehicle: other 120 % of control | [8] 106 % of control | dose: 200.0 mg/kg/injection, schedule: Q04DX003 (ip), vehicle: other 100 % of control | dose: 400.0 mg/kg/injection, schedule: Q01DX009 (ip), vehicle: other 104 % of control | [3] 92 % of control | dose: 400.0 mg/kg/injection, schedule: Q04DX003 (ip), vehicle: other 91 % of control
